What was measured:
A549 [1] = assay: Induction of apoptosis in human A549 cells assessed as early apoptotic cells at 1 uM incubated for 24 hrs by Annexin V-FITC/PI staining based flow cytometry analysis (reference value: 1.73 %); assay type: functional
NCI-H1975 [2] = assay: Induction of apoptosis in human NCI-H1975 cells assessed as late apoptotic cells at 1 uM incubated for 24 hrs by Annexin V-FITC/PI staining based flow cytometry analysis (reference value: 2.27 %); assay type: functional
A549 [3] = assay: Induction of apoptosis in human A549 cells assessed as early apoptotic cells at 2 uM incubated for 24 hrs by Annexin V-FITC/PI staining based flow cytometry analysis (reference value: 1.73 %); assay type: functional
A549 [4] = assay: Inhibition of cell migration in human A549 cells incubated for 12 hrs by crystal violet staining based analysis; assay type: functional; conditions: dose 0.5-2 µM
A549 [5] = assay: Induction of cell cycle arrest in human A549 cells assessed as accumulation of cells at G2 phase at 0.5 uM measured for 24 hrs by PI/Rnase staining based flow cytometry (reference value: 13.4 %); assay type: functional
A549 [6] = assay: Induction of apoptosis in human A549 cells assessed as necrotic cells at 1 uM incubated for 24 hrs by Annexin V-FITC/PI staining based flow cytometry analysis (reference value: 4.37 %); assay type: functional
[7] = Toxicity in BALB/c mouse xenografted with human A549 cells assessed as lung damage at 40 mg/kg, po administered once a day and measured after 20 days by H and E staining based analysis; assay type: organism-based; conditions: in vivo, 480 h, time 20 day
NCI-H1975 [8] = assay: Induction of cell cycle arrest in human NCI-H1975 cells assessed as accumulation of cells at G1 phase at 0.5 uM measured for 24 hrs by PI/Rnase staining based flow cytometry (reference value: 79.2 %); assay type: functional
A549 [9] = assay: Induction of apoptosis in human A549 cells assessed as necrotic cells at 0.5 uM incubated for 24 hrs by Annexin V-FITC/PI staining based flow cytometry analysis (reference value: 4.37 %); assay type: functional
[10] = Toxicity in BALB/c mouse xenografted with human A549 cells assessed as lung damage at 20 mg/kg, po administered once a day and measured after 20 days by H and E staining based analysis; assay type: organism-based; conditions: in vivo, 480 h, time 20 day
A549 [11] = assay: Induction of apoptosis in human A549 cells assessed as early apoptotic cells at 0.5 uM incubated for 24 hrs by Annexin V-FITC/PI staining based flow cytometry analysis (reference value: 1.73 %); assay type: functional
NCI-H1975 [12] = assay: Induction of cell cycle arrest in human NCI-H1975 cells assessed as accumulation of cells at G2 phase at 0.5 uM measured for 24 hrs by PI/Rnase staining based flow cytometry (reference value: 14.8 %); assay type: functional

SMILES: COc1cccc(-c2ccc(-c3nc4c5cccnc5c5ncccc5c4[nH]3)o2)c1
- Activity (A549 [1]): 6.47%
- Activity (NCI-H1975 [2]): 10.1%
- Activity (A549 [3]): 12.2%
- inhibition (A549 [4]): Dose-dependent-effect
- Activity (A549 [5]): 14.6%
- Activity (A549 [6]): 8.81%
- Activity [7]: Non-toxic
- Activity (NCI-H1975 [8]): 80.5%
- Activity (A549 [9]): 3.79%
- Activity [10]: Non-toxic
- Activity (A549 [11]): 5.09%
- Activity (NCI-H1975 [12]): 13%
